In US10940139B2, “Compounds that interact with the Ras superfamily for the treatment of cancers, inflammatory diseases, rasopathies, and fibrotic disease” (Shy Therapeutics LLC, priority 2017, dated 2021):

Key:
[1] = biological target: Rho-A (Homo sapiens (Human), UniProt P61586); experiment: Rho inhibition assay (labeled GTP); format: binding; conditions: read-out: Rho-A % Inh.
[2] = biological target: KRas G12D mutant protein (Homo sapiens (Human), UniProt P01116, G12D); experiment: Ras GTP binding domain inhibition assay (labeled GTP); conditions: at 20 μM; read-out: KRas G12D % Inh.
Sequence of KRas G12D mutant protein (P01116-2 other isoform, or with tags, fused parts or gaps G12D): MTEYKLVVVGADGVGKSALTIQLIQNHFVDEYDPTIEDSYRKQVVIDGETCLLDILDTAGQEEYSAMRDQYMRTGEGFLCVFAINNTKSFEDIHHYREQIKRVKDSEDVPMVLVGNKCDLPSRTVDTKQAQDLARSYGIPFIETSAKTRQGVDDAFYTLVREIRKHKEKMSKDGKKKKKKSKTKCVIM

[3] = biological target: KRas G12D/Q61H double mutant (Homo sapiens (Human), UniProt P01116, G12D/Q61H); experiment: as above; conditions: at 20 μM; read-out: KRas G12D Q61H % Inh.
Sequence of KRas G12D/Q61H double mutant (P01116-2 other isoform, or with tags, fused parts or gaps G12D/Q61H): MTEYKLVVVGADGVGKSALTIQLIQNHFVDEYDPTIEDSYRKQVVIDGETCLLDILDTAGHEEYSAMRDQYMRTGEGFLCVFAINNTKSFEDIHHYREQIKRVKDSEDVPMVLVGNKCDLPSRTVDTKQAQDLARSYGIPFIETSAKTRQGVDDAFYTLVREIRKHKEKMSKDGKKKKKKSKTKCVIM
How it was run: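 His-tagged KRas protein (3-10 μg/ml) was captured overnight at 4° C on nickel-coated wells in 50 mM Tris pH 7.5, 1 mM MgCl2, 1 mM DTT. Bound labeled GTP was read by fluorescence after washing.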

[4] = biological target: Rac-1 (Homo sapiens (Human), UniProt P63000); experiment: Rac inhibition assay (labeled GTP); format: binding; conditions: read-out: Rac-1 % Inh.

Sequence of Rho-A (P61586 whole entry, the tested form may be a part): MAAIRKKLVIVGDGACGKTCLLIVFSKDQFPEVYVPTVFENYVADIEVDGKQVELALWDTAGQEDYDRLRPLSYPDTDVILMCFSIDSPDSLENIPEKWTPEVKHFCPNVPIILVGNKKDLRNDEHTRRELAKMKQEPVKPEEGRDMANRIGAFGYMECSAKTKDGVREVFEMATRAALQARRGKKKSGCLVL

| SMILES | inhibition at 20 µM [1] | inhibition at 20 µM [2] | inhibition at 20 µM [3] | inhibition at 20 µM [4] |
| --- | --- | --- | --- | --- |
| COc1ccc(COC[C@H]2OC(c3csc4c(=O)[nH]c(-c5ccccn5)nc34)[C@H](O)[C@@H]2O)cc1 (some centres unmarked) | 76 to 100% | 25 to 50% | 25 to 50% | 51 to 75% |
| Oc1nc(-c2ccccn2)nc2scc(Br)c12 [drawing 3623] | 76 to 100% | 51 to 75% | 51 to 75% | 76 to 100% |
| Oc1nc(-c2ccccn2)nc2sccc12 [drawing 3624] | 76 to 100% | 25 to 50% | 51 to 75% | 76 to 100% |
| Oc1nc(-c2ccccn2)nc2c(-c3ccccc3Cl)csc12 [drawing 3626] | 76 to 100% | 25 to 50% | 51 to 75% | 76 to 100% |
| COc1ccnc(-c2nc(O)c3ccsc3n2)c1 [drawing 3627] | 51 to 75% | 51 to 75% | 51 to 75% | 76 to 100% |
| CC1CN(c2ccccc2)CCN1C(=O)c1csc2c(O)nc(-c3ccccn3)nc12 (centres unmarked) [drawing 3650] | 76 to 100% | 76 to 100% | 51 to 75% | 76 to 100% |
| COc1cccc(CN2CCN(C(=O)c3csc4c(O)nc(-c5ccccn5)nc34)CC2)c1 [drawing 3652] | 76 to 100% | 76 to 100% | 25 to 50% | 76 to 100% |
| O=C(c1csc2c(O)nc(-c3ccccn3)nc12)N1CCOC(c2ccccc2Cl)C1 (centres unmarked) [drawing 3658] | 76 to 100% | 25 to 50% | 51 to 75% | 51 to 75% |
| COc1cccc(C2CN(C(=O)c3csc4c(O)nc(-c5ccccn5)nc34)CCN2)c1 (centres unmarked) [drawing 3662] | 76 to 100% | 51 to 75% | 25 to 50% | 76 to 100% |
| N#Cc1ccc(COCC(=O)Nc2nc(-c3ccccn3)nc3sccc23)cc1 [drawing 3688] | 76 to 100% | 76 to 100% | 25 to 50% | 76 to 100% |
| COc1ccnc(-c2nc(O)c3c(Cl)csc3n2)c1 [drawing 3689] | 76 to 100% | 51 to 75% | 51 to 75% | 76 to 100% |
| Cc1cnc(-c2ccccn2)nc1NC(=O)C1CCCc2cc(C#N)ccc21 (centres unmarked) [drawing 3699] | 76 to 100% | 25 to 50% | 51 to 75% | 76 to 100% |
| O=C(COCc1ccncc1)Nc1nc(-c2ccccn2)nc2sccc12 [drawing 3700] | 76 to 100% | 51 to 75% | 51 to 75% | 76 to 100% |
| O=C(COCc1cccnc1)Nc1nc(-c2ccccn2)nc2sccc12 [drawing 3701] | 76 to 100% | 51 to 75% | 51 to 75% | 76 to 100% |
| Nc1nc(-c2ccccn2)nc2ccsc12 [drawing 3706] | 76 to 100% | 1 to 25% | 25 to 50% | 76 to 100% |
| Cc1cc2nc(-c3ccccn3)nc(N)c2s1 [drawing 3708] | 76 to 100% | 51 to 75% | 51 to 75% | 76 to 100% |
| O=C(c1csc2c(O)nc(-c3ccccn3)nc12)N1CC2CC1CN2c1ccccc1 (centres unmarked) [drawing 3710] | 76 to 100% | 51 to 75% | 76 to 100% | 76 to 100% |
| O=C(c1csc2c(O)nc(-c3ccccn3)nc12)N1CCC(c2ccncc2)C1 (centres unmarked) [drawing 3711] | 76 to 100% | 51 to 75% | 51 to 75% | 51 to 75% |
| Oc1nc(-c2ccccn2)nc2sc3c(c12)CCNC3 [drawing 3723] | 76 to 100% | 76 to 100% | 51 to 75% | 76 to 100% |
| Oc1nc(-c2ccccn2)nc2sc3c(c12)CCCNC3 [drawing 3724] | 51 to 75% | 51 to 75% | 25 to 50% | 76 to 100% |
| O=C(COCc1ccnc(O)c1)Nc1nc(-c2ccccn2)nc2sccc12 [drawing 3729] | 51 to 75% | 25 to 50% | 51 to 75% | 51 to 75% |
| Oc1nc(-c2ccccn2)nc2c(-c3ccccc3F)csc12 [drawing 3740] | 76 to 100% | 51 to 75% | 51 to 75% | 76 to 100% |
| Oc1nc(-c2ccccn2)nc2c(-c3cccc(C(F)(F)F)c3)csc12 [drawing 3745] | 25 to 50% | 51 to 75% | 25 to 50% | 51 to 75% |
| COc1ccc(F)cc1-c1csc2c(O)nc(-c3ccccn3)nc12 [drawing 3746] | 51 to 75% | 51 to 75% | 51 to 75% | 51 to 75% |
| Oc1nc(-c2ccccn2)nc2c(-c3ccsc3)csc12 [drawing 3747] | 51 to 75% | 51 to 75% | 25 to 50% | 76 to 100% |

Results, then the compound that gave them:

| inhibition at 20 µM [1] | inhibition at 20 µM [2] | inhibition at 20 µM [3] | inhibition at 20 µM [4] | SMILES |
| --- | --- | --- | --- | --- |
| 76 to 100% | 76 to 100% | 76 to 100% | 76 to 100% | O=C(c1csc2c(O)nc(-c3ccccn3)nc12)N1CCC(c2cccc(O)c2)C1 (centres unmarked) [drawing 3712] |
| 76 to 100% | 51 to 75% | 51 to 75% | 76 to 100% | O=C(c1cc2nc(-c3ccccn3)nc(O)c2s1)N1CCN(c2ccccc2)CC1 [drawing 3713] |
| 51 to 75% | 25 to 50% | 25 to 50% | 25 to 50% | Oc1nc(-c2ccccn2)nc2c(-c3cc(Cl)cc(Cl)c3)csc12 [drawing 3720] |
| 51 to 75% | 25 to 50% | 51 to 75% | 51 to 75% | Oc1nc(-c2ccccn2)nc2c(-c3cccc4c3OCO4)csc12 [drawing 3721] |
| 76 to 100% | 51 to 75% | 51 to 75% | 76 to 100% | O=C(O)c1cc2nc(-c3ccccn3)nc(O)c2s1 [drawing 3722] |
| 76 to 100% | 51 to 75% | 51 to 75% | 76 to 100% | Cc1cnc(-c2ccccn2)nc1NC(=O)Cc1ccc2cnccc2c1 [drawing 3728] |
| 51 to 75% | 25 to 50% | 25 to 50% | 51 to 75% | Nc1nc(-c2ccccn2)nc2c(-c3ccccc3)csc12 [drawing 3731] |
| 25 to 50% | 51 to 75% | 25 to 50% | 51 to 75% | Oc1nc(-c2ccccn2)nc2c(-c3cc(F)ccc3OC(F)F)csc12 [drawing 3732] |
| 51 to 75% | 51 to 75% | 51 to 75% | 76 to 100% | Cn1nnc2ccc(-c3csc4c(O)nc(-c5ccccn5)nc34)cc21 [drawing 3733] |
| 76 to 100% | 51 to 75% | 51 to 75% | 76 to 100% | O=S1(=O)CCN(Cc2cccc(-c3csc4c(O)nc(-c5ccccn5)nc34)c2)CC1 [drawing 3736] |
| 51 to 75% | 51 to 75% | 25 to 50% | 76 to 100% | COc1ccccc1-c1csc2c(O)nc(-c3ccccn3)nc12 [drawing 3742] |
| 51 to 75% | 51 to 75% | 51 to 75% | 51 to 75% | Oc1nc(-c2ccccn2)nc2c(-c3ccc(F)cc3F)csc12 [drawing 3743] |
| 51 to 75% | 76 to 100% | 25 to 50% | 51 to 75% | COc1cccc(-c2csc3c(O)nc(-c4ccccn4)nc23)c1 [drawing 3744] |
| 76 to 100% | 51 to 75% | 51 to 75% | 76 to 100% | Oc1nc(-c2ccccn2)nc2c(-c3ccc(OC(F)F)cc3F)csc12 [drawing 3748] |
| 51 to 75% | 51 to 75% | 51 to 75% | 76 to 100% | Oc1nc(-c2ccccn2)nc2c(-c3ccc4c(c3)OCO4)csc12 [drawing 3751] |
| 51 to 75% | 51 to 75% | 51 to 75% | 76 to 100% | CC(C)(O)c1ccc(-c2csc3c(O)nc(-c4ccccn4)nc23)c(F)c1 [drawing 3752] |
| 76 to 100% | 51 to 75% | 51 to 75% | 76 to 100% | COc1ccc(-c2csc3c(O)nc(-c4ccccn4)nc23)c(C)c1 [drawing 3753] |
| 51 to 75% | 25 to 50% | 25 to 50% | 51 to 75% | CNC(=O)c1ccc(-c2csc3c(O)nc(-c4ccccn4)nc23)cc1C [drawing 3757] |
| 76 to 100% | 76 to 100% | 51 to 75% | 76 to 100% | OCC1(c2ccc(-c3csc4c(O)nc(-c5ccccn5)nc34)cc2)CC1 [drawing 3758] |
| 51 to 75% | 25 to 50% |  | 25 to 50% | COCCNc1nc(-c2nccn2C)nc2sc(-c3ccccc3)c(-c3ccccn3)c12 [drawing 3940] |
